According to patent publication EP3165222A1, “USE OF PHTHALIDE COMPOUND” (Everfront Biotech Inc., priority 2014, dated 2016):
Read-outs that look alike come from different tables or passages of the source.

Tests used:
ubiquitin = test: Western blotting of cerebellum tissue of SCA3 mice, anti-ubiquitin antibody; assay type: in vivo; details: mice treated with BP, versus untreated and olive oil groups, Figure 9
Protocol: (§1) The MJD84.2 transgenic mice (i.e., the mice with modified ATXN3 gene) of eight weeks of age were randomly divided into five groups, with six mice in each group. The mice were treated with the following conditions: (1) untreated group; (2) treated with olive oil; (3) treated with 100 mg/kg/bid of BP; (4) treated with 500 mg/kg/bid of BP; (5) treated with 100 mg/kg/bid of ligustilide. Then, the mice were sacrificed at the age of 20 weeks and 24 weeks. Cerebellar slices staining and tissue protein extraction were performed (see Example 5). Whole brain tissue of the mice was fixed overnight with 3.7% formalin and embedded in paraffin. The samples were sectioned (4 µm) by using a Quanto kit (Thermo, USA) and mounted on a microscope slide.
(§2) The cerebellums of the mice sacrificed in example 4 were separated from the whole brain, and the proteins in the cerebellums were extracted. The purified proteins were analyzed by Western blotting assay using an anti-ubiquitin antibody and an anti-calbindin antibody, respectively, to determine the changes in the protein expression level of ubiquitin and calbindin in the cerebellum tissue of SCA3 mice in each group. β-actin was used as an internal control group.

motor neurons = test: Confocal microscopy test of motor neurons in zebrafish injected with ATXN3 MO; assay type: in vivo; details: ATXN3 MO in combination with 250 mg/kg BP; after 48 hours; Figure 4
Protocol: Zebrafish eggs were micro-injected with 300 nM/µl ATXN3 MO, 250 mg/kgBP, or ATXN3 MO in combination with 250 mg/kgBP, 125 mg/kg BP or 62.5 mg/kgBP. After 48 hours, the zebrafishes were enclosed in glass slides. The motor neurons in the living body were recorded by a confocal fluorescence microscopy.

MJD84.2 transgenic mice [1] = test: Local motor test in MJD84.2 transgenic mice (SCA3 mice); assay type: in vivo; details: BP 100 or 500 mg/kg/bid, ligustilide 100 mg/kg/bid, versus untreated group and olive oil group; for total moving distance: Figure 5A; for moving times: Figure 5B; for moving time: Figure 5C
Protocol: (§3) MJD84.2 transgenic mice (i.e., the mice being transfected with ATXN3 gene with human 84 CAG repeat sequence, hereinafter referred to as "SCA3 mice") were used in this experiment. MJD84.2 transgenic mice were an animal model used for studying spinal cerebellar atrophy.
(§4) The MJD84.2 transgenic mice of […] were randomly divided into five groups, each group had six mice. The mice were treated with the following conditions for two weeks: (1) untreated group; (2) treated with olive oil (i.e., only treated with the adjuvant); (3) treated with 100 mg/kg/bid (bis in die) of BP; (4) treated with 500 mg/kg/bid of BP; (5) treated with 100 mg/kg/bid of ligustilide. The wild type mice (WT) was used as a control group. After 2 weeks, local motor and rotarod test were conducted.
Local motor test was performed to test the exercise ability of mice. 10-week-old mice were tested on rotarod once every three weeks. Then, the mice were placed in a transparent acrylic box 2 hours and were free to move. A behavioral test was conducted for 1 hour by using VersaMax 420 (AccuscanInstrumentsInc, USA), and the data was analyzed by statistical methods.

ATXN3 protein = test: In vitro cell test: GFP-ATXN3 protein aggregation/expression in transfected cells by fluorescence microscopy; assay type: cell-based, human; details: pEGFP-C1-Ataxin3Q84 transfected HEK 293T or neural stem cells; 5 µg/ml for 24 hours; versus untreated groups; Figure 1
Protocol: In this experiment, the effects of BP and ligustilide on the protein expression level of SCA3 protein were analyzed. Frist, pEGFP-C1-Ataxin3Q84 plasmid (i.e., a plasmid comprising Ataxin gene with abnormal CAG repeat number (84Q)) containing green fluorescent protein or pEGFP-C1-Ataxin3Q28 plasmid (i.e., a plasmid comprising Ataxin gene with normal CAG repeat number (28Q)) (Addgene company, U.S.) was transfected into human embryonic kidney (HEK) cells 293T (Bioresource Collection and Research Center, Taiwan) or neural stem cells (NSC). The cells were then cultured in a DMEM medium (Dulbecco's modified Eagle's medium, Thermo) containing 10% fetal bovine serum (Gibco), and incubated in an incubator with 5% CO2 at 37°C. Then, the cells were treated with 5 µg/ml BP (A10353, purchased from Alfa Aesar, U.S.; with a purity of 95%) or ligustilide (5393-015M1, purchased from Pharmaron, China) for 24 hours. The protein aggregation of GFP-ATXN3 protein in the cells of each group was observed by a fluorescence microscopy. Wild type cells and cells transfected with green fluorescent protein (GFP) were used as the control group.

Purkinje cells = test: Immunohistochemistry staining of cerebellar slices of SCA3 mice; assay type: in vivo; details: cerebellum slices; BP 100 or 500 mg/kg/bid, ligustilide 100 mg/kg/bid; sacrificed at 20 and 24 weeks; versus untreated and olive oil groups; Figure 7
Protocol: as §1

[2] = Safe dose test (toxicity of BP to zebrafish, survival rate); details: in vivo, after 48 hours, 28.5°C, Figure 2, read-out: survival rate of the zebrafishes
Protocol: In this experiment, the zebrafishes that were used as the animal models in the experimental group were Tg (HuC:GFP), which is characterized by its primary sensory neurons (Rohon-Beard cells) that can produce fluorescence. The zebrafishes used in the control group were wild type zebrafishes. All of the zebrafishes were provided by TZCAS (Taiwan Zebrafish Core Facility at Academia Sinica, Taiwan) and TZCF (Taiwan Zebrafish Core Facility, Taiwan). First, the toxicity of BP to zebrafish was tested by injecting different dose of BP to zebrafishes. The zebrafishes were then kept at 28.5°C. After 48 hours, the survival rate of the zebrafishes was observed.

MJD84.2 transgenic mice [3] = test: Rotarod test in MJD84.2 transgenic mice (SCA3 mice); assay type: in vivo; details: BP 100 or 500 mg/kg/bid, ligustilide 100 mg/kg/bid; versus untreated group and olive oil group; Figure 6
Protocol: as §3, §4
Rotarod test was performed to test the balance and grip ability of mice. The mice were given practice two weeks before the first behavioral test. The experiment was conducted using an IITC rotarod (IITC Life Science Inc, USA). 10-week-old mice were tested on a rotarod once every three weeks. The test condition was set as a linear acceleration from 4 to 40 rpm within 300 seconds. The time (sec) that the mice fell from the rotarod (i.e., latency to fall) was recorded. […] After the rotarod test, the body weight of the mice were recorded. […]

zebrafish = test: Behavioral test in zebrafish injected with ATXN3 MO (tail stimulation); assay type: in vivo; details: Figure 3
Protocol: Morpholinos (MO) was produced by modifying the structure of a fragment of DNA, which can block protein translation process of mRNA to inhibit the expression of a target protein. The ATXN3 MO used in this experiment has a sequence of 5'-[…]-3' (SEQ ID NO. : 1), and the standard used in the control group is 5'-[…]-3' (SEQ ID NO. : 2) (hereinafter referred to as "Ct MO"). Before injection, the MO was dissolved in ddH2O, stored at -20°C for used. Zebrafish eggs were micro-injected within about one hour after birth. After 21 to 48 hours post fertilization (hpf), the zebrafish eggs were micro-injected with ATXN3 MO or ATXN3 MO in combination with 250 mg/kg BP, 125 mg/kg BP or 62.5 mg/kg BP. After 48 hours, the fish tails were stimulated by tips, and the number of stimulation causing movement of the fish tails was measured.

calbindin = test: Western blotting of cerebellum tissue of SCA3 mice, anti-calbindin antibody; assay type: in vivo; details: BP 100 or 500 mg/kg/bid, ligustilide 100 mg/kg/bid, versus untreated and olive oil groups, Figure 8
Protocol: as §1, §2

Structure (SMILES)	content of the ubiquitin ubiquitination proteins (ubiquitin)	number of motor neurons (motor neurons)	total moving distance (MJD84.2 transgenic mice [1])	moving times (MJD84.2 transgenic mice [1])	moving time (MJD84.2 transgenic mice [1])	fluorescent signal of Ataxin3Q84 (ATXN3 protein)	number of Purkinje cells (Purkinje cells)	survival at 48 h ([2]; 50 mg/kg BP injected) [%]	survival at 48 h ([2]; 250 mg/kg BP injected) [%]	survival at 48 h ([2]; 500 mg/kg BP injected) [%]	balance and grip ability (latency to fall) (MJD84.2 transgenic mice [3])	restoring the behavioral ability of the diseased zebrafishes (zebrafish; 250 mg/kg BP compared with the other BP doses)	amount of stimulation-caused movement of fish tails (zebrafish; ATXN3 MO in combination with 250, 125 or 62.5 mg/kg BP, after 48 hours, versus ATXN3 MO alone)	protein expression level of calbindin (calbindin)
CCCC=C1OC(=O)c2ccccc21 [BP, n-butylidenephthalide]	significantly higher	can maintain the number of motor neurons	higher	higher	higher	significantly lower	significantly higher	> 75	> 75	50	better	the most obvious effect	restored (i.e., decreased)	significantly higher
CCCC=C1OC(=O)C2=C1CCC=C2 [ligustilide, 3-butylidene-4,5-dihydrophthalide]	–	–	higher	higher	higher	significantly lower	significantly higher	–	–	–	better	–	–	significantly higher
